Entries after “also recorded” stand apart in the source; their conditions may differ. Ends that are not written are not given here.
How the values were obtained:
FV-810 [1] = target: T1, FV-810 (Homo sapiens, UniProt P12259, DEL839-1519); assay: Clotting assay, FV-deficient plasma supplemented with FV-810 (FV-DT); assay type: biochemical; conditions: for inhibition of clotting activity of FV-810 (FV-DT): FV-deficient plasma, FIG. 8A: 0.25 nM FV-810, peptides at 5 μM
T1 construct: amino acids 1-28 are a signal peptide that is cleaved and numbering begins at residue 29; made in house
T1 sequence (P12259 with tags, fused parts or gaps DEL839-1519): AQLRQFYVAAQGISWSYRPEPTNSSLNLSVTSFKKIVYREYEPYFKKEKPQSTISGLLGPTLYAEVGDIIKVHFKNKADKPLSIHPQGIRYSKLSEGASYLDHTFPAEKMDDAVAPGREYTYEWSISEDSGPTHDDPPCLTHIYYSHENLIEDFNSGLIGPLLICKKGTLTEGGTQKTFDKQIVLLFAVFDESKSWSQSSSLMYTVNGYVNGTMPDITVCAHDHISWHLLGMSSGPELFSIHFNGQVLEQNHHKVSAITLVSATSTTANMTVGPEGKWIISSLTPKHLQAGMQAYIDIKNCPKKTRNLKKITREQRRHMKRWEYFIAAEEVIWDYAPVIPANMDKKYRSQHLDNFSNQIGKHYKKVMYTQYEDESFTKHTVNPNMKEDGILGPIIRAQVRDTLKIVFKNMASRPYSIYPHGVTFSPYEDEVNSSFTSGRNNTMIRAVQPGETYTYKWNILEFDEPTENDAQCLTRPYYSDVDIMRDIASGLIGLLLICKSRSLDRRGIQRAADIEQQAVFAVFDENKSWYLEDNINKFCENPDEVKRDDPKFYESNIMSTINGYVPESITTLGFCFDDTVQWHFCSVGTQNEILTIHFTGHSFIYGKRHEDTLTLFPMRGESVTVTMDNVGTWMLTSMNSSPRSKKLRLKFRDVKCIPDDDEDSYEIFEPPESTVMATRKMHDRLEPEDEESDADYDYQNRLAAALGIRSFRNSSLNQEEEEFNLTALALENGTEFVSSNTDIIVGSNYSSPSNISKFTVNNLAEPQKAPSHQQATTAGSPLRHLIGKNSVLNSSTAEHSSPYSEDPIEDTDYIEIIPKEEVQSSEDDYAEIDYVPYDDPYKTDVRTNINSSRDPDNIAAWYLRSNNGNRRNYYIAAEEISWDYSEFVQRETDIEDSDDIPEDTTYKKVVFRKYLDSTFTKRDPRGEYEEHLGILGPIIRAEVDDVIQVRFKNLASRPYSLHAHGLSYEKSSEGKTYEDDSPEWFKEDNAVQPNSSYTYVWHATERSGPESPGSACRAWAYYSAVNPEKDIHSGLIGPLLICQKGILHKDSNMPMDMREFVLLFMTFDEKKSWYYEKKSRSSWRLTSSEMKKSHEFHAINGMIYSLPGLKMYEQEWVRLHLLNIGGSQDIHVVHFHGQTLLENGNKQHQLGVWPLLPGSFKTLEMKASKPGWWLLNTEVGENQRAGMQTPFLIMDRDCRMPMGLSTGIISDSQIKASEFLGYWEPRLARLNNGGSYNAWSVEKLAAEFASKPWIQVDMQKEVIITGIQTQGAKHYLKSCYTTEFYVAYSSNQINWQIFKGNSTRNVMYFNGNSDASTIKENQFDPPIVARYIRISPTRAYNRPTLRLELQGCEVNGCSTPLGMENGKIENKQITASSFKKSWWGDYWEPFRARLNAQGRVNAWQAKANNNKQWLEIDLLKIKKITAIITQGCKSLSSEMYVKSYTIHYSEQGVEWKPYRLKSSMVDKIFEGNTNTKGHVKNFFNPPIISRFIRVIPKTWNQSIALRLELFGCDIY
Protocol: (§1) Residual clotting activity of Factor V variants was determined by prothrombin time-based clotting assays. Factor V variants were incubated with either the FVBR or s46 peptide, after which the mixtures were mixed with Factor V deficient plasma and clotting times were measured. Where indicated, the Factor V variants were activated by pre-incubation with thrombin prior to addition of the peptides.
(§2) FV derivatives (500 nM) were prepared in assay buffer. Where noted, FV derivatives were pretreated with 10 nM thrombin for 15 minutes at 37° C., followed by the addition of 15 nM hirudin. Samples were diluted to 0.25 nM in assay buffer with 0.1% BSA, and the specific clotting activity was measured in FV-deficient plasma (George King Bio-Medical, Overland Park, Kans.) with TriniCLOT PT Excel (Tcoag, Wicklow, Ireland) as described (Camire et al. (1998) Biochemistry 37:11896-11906). The data are presented as the means±S.D.

FV-810 [2] = target: T1, FV-810; assay: Prethrombin-2 activation, competition of BR and FXa for FV-810; assay type: biochemical; conditions: read-out: Kd for FV-810 from prethrombin-2 activation, model for tight binding
plasma-derived Factor V = target: T2, plasma-derived Factor V (Homo sapiens, UniProt P12259); assay: Proteolytic activation of Factor V by thrombin (SDS-PAGE); assay type: biochemical; conditions: presence of FVBR
T2 construct: from tissue; host or cells: plasma
T2 sequence (P12259 29-2224): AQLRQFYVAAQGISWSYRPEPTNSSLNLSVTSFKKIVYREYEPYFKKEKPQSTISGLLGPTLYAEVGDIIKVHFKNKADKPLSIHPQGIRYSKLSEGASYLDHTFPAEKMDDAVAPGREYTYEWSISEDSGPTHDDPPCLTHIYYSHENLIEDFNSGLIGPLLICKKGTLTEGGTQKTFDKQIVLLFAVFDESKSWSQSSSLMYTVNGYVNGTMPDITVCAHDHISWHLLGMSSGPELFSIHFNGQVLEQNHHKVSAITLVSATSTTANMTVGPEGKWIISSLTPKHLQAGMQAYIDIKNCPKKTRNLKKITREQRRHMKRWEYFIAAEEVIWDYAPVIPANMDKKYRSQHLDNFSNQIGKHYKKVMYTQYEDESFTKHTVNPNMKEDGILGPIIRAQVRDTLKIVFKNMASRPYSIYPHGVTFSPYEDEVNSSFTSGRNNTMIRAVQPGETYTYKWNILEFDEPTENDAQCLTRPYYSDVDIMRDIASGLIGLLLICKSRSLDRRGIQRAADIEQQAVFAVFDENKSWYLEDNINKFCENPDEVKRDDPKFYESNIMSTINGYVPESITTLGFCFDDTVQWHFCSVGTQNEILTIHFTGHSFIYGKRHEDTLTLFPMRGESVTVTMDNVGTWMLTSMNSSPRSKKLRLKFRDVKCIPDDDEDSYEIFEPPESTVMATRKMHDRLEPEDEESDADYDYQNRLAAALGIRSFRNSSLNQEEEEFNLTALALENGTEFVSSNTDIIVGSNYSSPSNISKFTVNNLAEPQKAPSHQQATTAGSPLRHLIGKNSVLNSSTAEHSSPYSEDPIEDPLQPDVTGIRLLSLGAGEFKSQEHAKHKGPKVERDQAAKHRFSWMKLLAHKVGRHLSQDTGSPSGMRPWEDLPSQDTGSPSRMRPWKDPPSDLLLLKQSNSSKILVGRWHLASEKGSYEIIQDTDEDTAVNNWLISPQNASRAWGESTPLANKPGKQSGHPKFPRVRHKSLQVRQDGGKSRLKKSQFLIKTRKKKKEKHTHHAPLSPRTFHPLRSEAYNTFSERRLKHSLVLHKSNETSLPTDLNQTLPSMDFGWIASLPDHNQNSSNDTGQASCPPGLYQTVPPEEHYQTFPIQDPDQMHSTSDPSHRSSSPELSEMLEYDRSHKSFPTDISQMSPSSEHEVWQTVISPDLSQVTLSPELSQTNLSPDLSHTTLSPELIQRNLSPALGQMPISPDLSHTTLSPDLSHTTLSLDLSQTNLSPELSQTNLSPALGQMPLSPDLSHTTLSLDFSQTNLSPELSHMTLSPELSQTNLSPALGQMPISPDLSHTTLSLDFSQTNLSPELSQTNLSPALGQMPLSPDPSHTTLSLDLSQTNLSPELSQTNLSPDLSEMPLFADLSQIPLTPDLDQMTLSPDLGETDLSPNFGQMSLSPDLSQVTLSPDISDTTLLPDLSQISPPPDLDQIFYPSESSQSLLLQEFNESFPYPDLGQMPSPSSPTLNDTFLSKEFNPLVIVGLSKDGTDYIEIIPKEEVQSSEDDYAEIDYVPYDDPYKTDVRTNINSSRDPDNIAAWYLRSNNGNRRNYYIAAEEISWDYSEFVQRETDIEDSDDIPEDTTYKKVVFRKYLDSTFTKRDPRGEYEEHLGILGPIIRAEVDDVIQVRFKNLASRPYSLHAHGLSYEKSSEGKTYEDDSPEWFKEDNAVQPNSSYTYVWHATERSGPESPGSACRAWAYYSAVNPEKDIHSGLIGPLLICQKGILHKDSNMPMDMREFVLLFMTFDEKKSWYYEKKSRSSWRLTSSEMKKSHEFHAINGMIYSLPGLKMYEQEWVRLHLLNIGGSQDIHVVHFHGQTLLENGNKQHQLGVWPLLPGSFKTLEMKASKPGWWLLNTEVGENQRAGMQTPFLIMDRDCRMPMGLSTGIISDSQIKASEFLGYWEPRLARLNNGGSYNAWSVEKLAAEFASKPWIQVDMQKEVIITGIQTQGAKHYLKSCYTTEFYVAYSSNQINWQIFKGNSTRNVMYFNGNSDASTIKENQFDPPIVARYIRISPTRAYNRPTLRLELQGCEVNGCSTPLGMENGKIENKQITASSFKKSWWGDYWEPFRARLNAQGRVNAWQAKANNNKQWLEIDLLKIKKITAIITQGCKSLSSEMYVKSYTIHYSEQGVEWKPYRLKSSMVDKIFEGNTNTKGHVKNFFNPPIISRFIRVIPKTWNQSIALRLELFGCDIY
Protocol: Plasma-derived Factor V was incubated with thrombin in the presence or absence of FVBR peptide. Samples were removed and quenched in sample buffer at the indicated times, and the cleavage products were analyzed by SDS-PAGE and Coomassie Brilliant Blue staining.

FXa/FVa = target: T3, FXa/FVa (Homo sapiens, UniProt P12259); assay: Binding of fluorescently labeled FXa to rFVa on liposomes (anisotropy); conditions: on PCPS liposomes
T3 construct: thrombin rapidly cleaves Factor V at Arg709 to produce heavy chain (HC); rapidly cleaves at Arg1018 and Arg1545 to produce light chain (LC); made in house
T3 sequence (P12259 29-737 limits assumed): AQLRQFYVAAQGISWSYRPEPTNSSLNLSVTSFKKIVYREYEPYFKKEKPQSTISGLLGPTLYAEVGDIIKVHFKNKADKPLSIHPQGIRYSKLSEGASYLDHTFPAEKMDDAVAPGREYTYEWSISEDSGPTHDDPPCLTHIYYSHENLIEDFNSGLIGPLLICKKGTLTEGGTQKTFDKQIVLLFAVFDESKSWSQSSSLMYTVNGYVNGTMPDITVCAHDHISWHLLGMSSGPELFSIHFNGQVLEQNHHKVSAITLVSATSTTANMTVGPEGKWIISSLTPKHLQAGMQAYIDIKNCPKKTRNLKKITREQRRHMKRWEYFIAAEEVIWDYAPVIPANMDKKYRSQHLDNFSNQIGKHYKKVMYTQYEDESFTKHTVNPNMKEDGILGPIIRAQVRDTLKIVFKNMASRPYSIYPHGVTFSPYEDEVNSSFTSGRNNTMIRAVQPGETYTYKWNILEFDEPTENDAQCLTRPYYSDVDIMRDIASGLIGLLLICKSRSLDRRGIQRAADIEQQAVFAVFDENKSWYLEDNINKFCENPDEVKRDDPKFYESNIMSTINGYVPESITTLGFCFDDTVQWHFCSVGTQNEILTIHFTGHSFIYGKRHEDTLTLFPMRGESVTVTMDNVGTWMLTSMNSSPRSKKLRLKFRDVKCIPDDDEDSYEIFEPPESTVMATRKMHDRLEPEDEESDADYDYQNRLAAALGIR
T3 sequence (P12259 1574-2224 limits assumed): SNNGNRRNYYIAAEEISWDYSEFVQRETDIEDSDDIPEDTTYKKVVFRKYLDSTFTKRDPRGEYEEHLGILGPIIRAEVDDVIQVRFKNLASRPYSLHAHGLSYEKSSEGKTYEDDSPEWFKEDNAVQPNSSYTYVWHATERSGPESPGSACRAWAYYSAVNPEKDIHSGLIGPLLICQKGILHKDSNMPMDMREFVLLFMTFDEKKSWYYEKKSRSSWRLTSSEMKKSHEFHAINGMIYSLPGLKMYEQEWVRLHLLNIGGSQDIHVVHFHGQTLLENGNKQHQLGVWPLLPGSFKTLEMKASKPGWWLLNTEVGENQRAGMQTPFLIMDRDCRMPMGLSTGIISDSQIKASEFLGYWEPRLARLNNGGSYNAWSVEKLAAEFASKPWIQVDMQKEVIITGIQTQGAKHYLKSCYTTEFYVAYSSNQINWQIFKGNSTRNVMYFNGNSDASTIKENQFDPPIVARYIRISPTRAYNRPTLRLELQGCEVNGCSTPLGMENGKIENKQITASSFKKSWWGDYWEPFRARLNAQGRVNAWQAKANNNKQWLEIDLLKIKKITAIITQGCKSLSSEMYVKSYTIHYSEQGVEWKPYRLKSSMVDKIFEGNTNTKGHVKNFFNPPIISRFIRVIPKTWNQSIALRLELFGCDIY

FV-810^R709Q = target: T4, FV-810^R709Q (Homo sapiens, UniProt P12259, DEL839-1519/R737Q); assay: Clotting assay with FV-810^R709Q; assay type: biochemical; conditions: prior to thrombin cleavage
T4 construct: amino acids 1-28 are a signal peptide that is cleaved and numbering begins at residue 29; made in house
T4 sequence (P12259 with tags, fused parts or gaps R737Q/DEL839-1519): as the sequence (P12259 with tags, fused parts or gaps DEL839-1519) above, with R709Q counted along it
Protocol: as §1, §2

FV-810^R1545Q = target: T5, FV-810^R1545Q (Homo sapiens, UniProt P12259, DEL839-1519/R1573Q); assay: Clotting assay with FV-810^R1545Q; assay type: biochemical
T5 construct: amino acids 1-28 are a signal peptide that is cleaved and numbering begins at residue 29; made in house
T5 sequence (P12259 with tags, fused parts or gaps DEL839-1519/R1573Q): as the sequence (P12259 with tags, fused parts or gaps DEL839-1519) above, with R864Q counted along it
Protocol: as §1, §2

inhibition of clotting activity of FV-810 (FV-DT) (FV-810 [1]): inhibited
inhibition of clotting activity of FV-810 (FV-DT) (FV-810 [1]; listed as BR peptide): similarly inhibited
inhibition of FV-810 (FV-810 [1]; prior to thrombin cleavage): potently inhibited
Kd (FV-810 [2]): 34.2 ± 3.6 nM
thrombin cleavage of FV at Arg709 (plasma-derived Factor V): proceeds normally
disruption of FXa binding to FVa (FXa/FVa): not FVa
inhibition of FV-810^R709Q (FV-810^R709Q): potently inhibited
inhibition of FV-810^R1545Q (FV-810^R1545Q; following incubation with thrombin): still inhibited
inhibition of FV-810^R1545Q (FV-810^R1545Q; prior to thrombin cleavage): potently inhibited
Sequence: SRAWGESTPLANKPGKQSGHPKFPRVRHKSLQVRQDGGKSRLKKSQFLIKTRKKKKEK [FVBR]
proteolytic activation of FV by thrombin, cleavage at Arg1545 (plasma-derived Factor V): delays the proteolytic activation; also recorded: delayed cleavage

Source: US10239933B2, “Compositions and methods for modulating thrombin generation” (The Children's Hospital of Philadelphia, priority 2011, dated 2019)
